Tests used:
[1] = Free radical scavenging ability by DPPH method; format: biochemical; details: each component 0.5 mg/mL in methanol; DPPH 0.12 mM; 1 hour; absorbance 517 nm; average of three
Description: In Comparative Examples 1 to 4 and Examples 1 to 6, a solution was prepared using methanol as a solvent so that the concentration of each component in the solution was 0.5 mg/mL. In order to confirm the antioxidant effect of Comparative Examples 1 to 4 and Examples 1 to 6, free radical scavenging ability was measured using a 1,1-diphenyl-2-picrylhydrazyl (DPPH) method. […] DPPH was used after being dissolved in methanol at a concentration of 0.12 mM.
Comparative Examples 1 to 4, Examples 1 to 6, and Trolox solutions by concentration (0.0125, 0.025, 0.05, 0.1, 0.2, 0.4, 0.8 mg/mL) were each put into a 24-well plate in an amount of 100 μL, and the DPPH solution was added in an amount of 1,900 μL. After blocking the light at room temperature and leaving it for 1 hour, the absorbance at 517 nm was measured using a microplate reader (BioTek EPOCH). A calibration curve according to the concentration was created using the absorbance values of the Trolox solution at 7 concentrations. In this experiment, Trolox is one indicator for measuring the antioxidative capacity of a sample, and the antioxidative capacity of each comparative example and example is a size compared to Trolox. The degree of antioxidant effect shown by 1 mL of the example solution by substituting the absorbance of the example solution into the calibration curve is expressed in Trolox μmol equivalents/mL and summarized in Table 2 below. The experiment was performed three times, and then an average value was calculated and shown.

[2] = system: MNT-1 melanoma cells; assay: Inhibition of melanin production in MNT-1 melanoma cells; format: cell-based; details: each component 3 μg/mL (3 ppm); 72 hours; relative to methanol negative control; average of three
Description: To culture MNT-1 melanoma cells, a mixture of Dulbecco's Modified Eagle's Medium (DMEM) and 10% fetal bovine serum (FBS) was used as a basal medium. MNT-1 melanoma cells were dispensed in a 6-well plate at a concentration of 1-2×10^5 cells/mL and cultured for 24 hours. Samples were treated so that the final concentration of each component of Comparative Examples 1 to 4 and Examples 1 to 6 was 3 μg/mL (3 ppm), and then cultured for 72 hours. As a positive control, arbutin was treated to be 200 μg/mL (200 ppm) (positive control in Table 3). Thereafter, the cells were treated with trypsin, detached from the culture vessel, centrifuged at 13,000 rpm for 1 minute, and then the supernatant was removed. Cells were lysed by adding 300 μL of a 0.5% Triton X-100 solution to the remaining cells. This was again centrifuged at 13,000 rpm for 3 minutes to recover the pellet and supernatant separately. Melanin in the pellet was dissolved by adding 100 μL of a 0.5 N sodium hydroxide solution and incubating for 12 hours, and absorbance at 450 nm was measured using a spectrophotometer to measure the total amount of melanin produced.
The total amount of inhibited melanin production was calculated as a melanin production inhibition rate (%) relative to a group (negative control group) treated with methanol (Equation 1 below), and the experiment was performed three times, and then an average value was calculated and shown in Table 3.

[3] = system: human-derived fibroblasts; assay: Collagen synthesis promotion in fibroblasts (Procollagen 1α1 ELISA); format: cell-based; details: each component 3 μg/mL (3 ppm); 24 hours; medium without FBS; relative to methanol negative control; average of three
Description: A mixture of DMEM and 10% FBS was used as a basal medium for culturing human-derived fibroblasts. Skin fibroblasts were dispensed in a 48-well plate at a concentration of 2-5×10^4 cells/mL and cultured for 24 hours. The basal medium with growth factors was removed, and a medium (a medium to which FBS was not added) having a final concentration of 3 μg/mL (3 ppm) of each component of Comparative Examples 1 to 4 and Examples 1 to 6 was added and cultured for 24 hours. A positive control for inducing collagen synthesis was treated with TGF-β to be 5 ng/mL (5 ppb) (positive control in Table 4). A cell culture solution was taken and synthesized collagen was measured using a Human Procollagen 1α1 Duoset ELISA Kit (R&D Systems) and a spectrophotometer.
A calibration curve was created by measuring the separated and purified collagen at concentrations of 0.25, 0.5, 1, 2, 4, and 8 ng/mL, and based on this, the collagen (Type I collagen) production amounts of Comparative Examples 1 to 4 and Examples 1 to 6, a negative control group, and a positive control group were calculated. The collagen production amount was calculated using a collagen production rate (%) relative to the group treated with methanol (negative control group) (Equation 2 below), and the experiment was performed three times, and then an average value was calculated and shown in Table 4.

[4] = system: Human skin keratinocytes; assay: Hyaluronic acid synthesis promotion in keratinocytes (Hyaluronan ELISA); format: cell-based; details: each component 3 μg/mL (3 ppm); 24 hours; medium without EGF and BPE; relative to methanol negative control; average of three
Description: Human skin keratinocytes (primary cultured human skin keratinocytes) were purchased from Thermo Fisher Scientific and cultured using Keratinocyte-SFM supplemented with epidermal growth factor (EGF), which is a growth factor, and bovine pituitary extract (BPE). The keratinocytes were dispensed in a 60-mm culture plate at a concentration of 2-5×10^5 cells/mL and cultured for 24 hours. The basal medium with growth factors was removed, and a medium (a medium to which EGF and BPE were not added) having a final concentration of 3 μg/mL (3 ppm) of each component of Comparative Examples 1 to 4 and Examples 1 to 6 was added and cultured for 24 hours. A positive control for inducing hyaluronic acid synthesis was treated with all-trans-retinoic acid to be 100 nM (positive control in Table 5). A cell culture solution was taken and synthesized hyaluronic acid was measured using a Hyaluronan DuoSet ELISA Kit (R&D Systems) and a spectrophotometer.
A calibration curve was created by measuring standard hyaluronic acid at concentrations of 1.1, 3.3, 10, 30, and 90 ng/mL, and based on this, the hyaluronic acid production amounts of Comparative Examples 1 to 4 and Examples 1 to 6, a negative control group, and […] were calculated. The hyaluronic acid production amount was calculated using a hyaluronic acid production rate (%) relative to the group treated with methanol (negative control group) (Equation 2 below), and the experiment was performed three times, and then an average value was calculated and shown in Table 5.

With `CCCCC/C=C\C/C=C\CCCCCCCC(=O)O` [compound 4, Linoleic acid] the “Trolox μmol equivalents/mL” value [1] was 0.023 Trolox μmol equivalents/mL, the “Melanin production Inhibition rate (%)” value [2] was 6.7% and the “Collagen Production rate (%)” value [3] was −2.5%. For the same molecule, the “Hyaluronic acid Production rate (%)” value [4] was 4.1%.

In the case of `COc1cc(/C=C/C(=O)O)ccc1O` [compound 2, Ferulic acid], the “Trolox μmol equivalents/mL” value [1] is reported as 0.981 Trolox μmol equivalents/mL, the “Melanin production Inhibition rate (%)” value [2] is reported as 16.3% and the “Collagen Production rate (%)” value [3] is reported as 8.8%. The “Hyaluronic acid Production rate (%)” value [4] was 32.2%.

With `CC[C@H](CC[C@@H](C)[C@H]1CC[C@H]2[C@@H]3CC=C4C[C@@H](O)CC[C@]4(C)[C@H]3CC[C@]12C)C(C)C` [compound 3, Beta-sitosterol] the “Trolox μmol equivalents/mL” value [1] was 0.051 Trolox μmol equivalents/mL, the “Melanin production Inhibition rate (%)” value [2] was 1.7% and the “Collagen Production rate (%)” value [3] was 2.4%. For the same molecule, the “Hyaluronic acid Production rate (%)” value [4] was −3.0%.

For `C[C@@H]1CC[C@H]2C(C)(C)[C@H]3C[C@@]12CC[C@@]3(C)O` [compound 1, Cedrol], the “Trolox μmol equivalents/mL” value [1] was 0.104 Trolox μmol equivalents/mL, the “Melanin production Inhibition rate (%)” value [2] was 17.5% and the “Collagen Production rate (%)” value [3] was 27.9%. For the same molecule, the “Hyaluronic acid Production rate (%)” value [4] was 5.6%.

Source: patent publication US20240299277A1, “COMPOSITION FOR IMPROVING SKIN” (LG HOUSEHOLD & HEALTH CARE LTD., priority 2020, published 2024)
